In patent publication US5573772A, “Methods for protecting tissues and organs from ischemic damage” (priority 1994, dated 1996):

What was measured:
heart = details: cited from earlier work
isolated rabbit hearts [1] = assay: Hemodynamic effects in non-ischemic, unpaced isolated rabbit hearts, Example 4; details: APNEA 500 nM
Experimental: In an additional group of 3 hearts that were not made ischemic, 500 nM APNEA was infused for 1 minute. This group of hearts was not paced to control heart rate, and the effects of APNEA on spontaneous heart rate and coronary flow were measured to determine the hemodynamic effects of APNEA.

isolated rabbit hearts [2] = assay: Dose-response of APNEA on infarct size in isolated rabbit hearts, Example 4 (Table A)
Experimental: New Zealand white rabbits of either sex, between 1.4-2.4 kg, were anesthetized with intravenous sodium pentobarbital (30 mg/kg). The neck was opened and a tracheotomy was performed. The rabbits were ventilated with 100% oxygen via a positive pressure respirator (MD industries, Mobile, Ala.). Ventilation rate was 30-35 breaths per minute, and tidal volume was approximately 15 ml. A left thoracotomy was performed in the fourth intercostal space and pericardium was opened to expose the heart. A 2-0 silk suture with an RB taper needle was passed around a branch of the left coronary artery, and the end of the silk were threaded through a small vinyl tube to form a snare. The heads were quickly excised and mounted on a Langendorff apparatus and perfused at constant pressure with Krebs buffer containing (in mM) 118.5 NaCl, 4.7 KCl, 1.2 MgSO4, 1.2 K2 PO4, 24.3 NaHCO3, 2.5 CaCl2 and 10 glucose. […] The temperature of the perfusate was maintained at 37° C. The perfusion pressure was kept at 75 mm Hg. Pacing electrodes were placed on the right atrium and all hearts were paced at 200 beats/minute with pulses of 5 volts and 4 msec duration to keep the heart rate constant. A fluid-filled latex balloon connected to a transducer via PE240 tubing was inserted into the left ventricle. Balloon volume was adjusted to set the left ventricular diastolic pressure at 10 mm Hg at the beginning of the experiment. Total coronary artery flow was measured by timed collection of buffer from the chamber into a graduated cylinder. Regional ischemia was effected by pulling the snare tight and clamping the tube with a hemostat. Global ischemia was performed by clamping the inflow tubing of the Langendorff apparatus. Reperfusion was achieved by releasing the restriction. All hearts were allowed to equilibrate for 20 minutes before the experiments were started. Heart rate (HR), coronary flow (CF) and left ventricular developed pressure (LVDP) were recorded at the point just before and at the end of each treatment with the pacing momentarily turned off.
For the group to be exposed to ischemia, the silk suture under the coronary branch was tightly tied to occlude the artery at the end of each experiment, and a 0.5% suspension of fluorescent particles (1-10 um diameter from Duke Scientific Corp., Palo Alto, Calif.) were infused into the perfusate to mark the risk zone as the non-fluorescent tissue. The hearts were removed from the Langendorff apparatus, weighed and then frozen. The hearts were cut into 2 mm transverse slices. The slices were thawed and incubated in 1% triphenyl tetrazolium chloride (TTC) in pH 7.4 buffer for 20 minutes at 37° C. TTC reacts with NADH and dehydrogenase enzymes and stains all tissue still having them to a deep red color. […] After staining, the area of infarcted tissue (TTC negative tissue) and the risk zone (area lacking fluorescence under ultraviolet light) in each slice were traced. The area of infarct and risk zone were determined by planimetry of the tracing. The volume of infarcted myocardium and myocardium at risk was then calculated by multiplying the planimetered areas by the slice thickness.
In this study, applicants examined the effects of varying the dosage of APNEA on myocardial infarct size in Langendorff buffer-perfused rabbit hearts subject to 30 minutes of regional ischemia and 2 hours reperfusion. The methods utilized in this example are identical to those described in Example 1.
Six groups of hearts were studied: control untreated hearts (n=10); APNEA 0.5 nM (n=6); APNEA 5 nM (n=6); APNEA 50 nM (n=6); APNEA 500 nM (n=6); and APNEA 500 nM+DPCPX 200 nM.(n=6) In all cases, APNEA (0.5-500 nM) was infused for 5 minutes, beginning 15 minutes prior to 30 minutes of ischemia. The regional ischemia was produced by occlusion of the coronary artery, followed by 120 minutes of reperfusion.

[3] = tested on: intact, blood perfused rabbit heart; assay: Infarct size in the intact anesthetized rabbit, 30 min ischemia and reperfusion, Example 2
Experimental: In this study, the effect of the adenosine receptor agonist, I-APNEA, on infarct size in the anesthetized rabbit was compared to the protection observed with ischemic preconditioning (PC).
New Zealand White rabbits (1.5-2.5 kg) were anaesthetized with pentobarbital sodium (40 mg/kg) administered via a catheter in a marginal ear vein. The animals were intubated with a pediatric cuffed endotracheal tube and ventilated with room air using a positive pressure respirator (Harvard Apparatus, Natick, Mass.). The heart was exposed in situ via an incision between the left 4th and 5th ribs, and a branch of the left coronary artery was isolated, using a 3-0 silk suture on RB-taper needle, for later ligation to induce 30 minutes of ischemia followed by 180 minutes of reperfusion. A catheter inserted into a femoral vein was used for administration of fluids and drugs. Infarct size was measured using the method described in the section entitled "Measurement of Infarct Size and Risk Area" in Example 1.
All animals received 30 minutes of regional ischemia, induced by tightening the suture placed around the coronary artery. Following the 30 minutes of ischemia, the suture was loosened, and reperfusion was allowed for the ensuing 180 minutes. Control animals received only the 30 minutes of ischemia and 180 minutes of reperfusion (n=9). Ischemic preconditioning (PC) was induced by 5 minutes of occlusion of the coronary artery followed by 10 minutes of reperfusion before the 30 minutes of occlusion (n=7). In a separate group of rabbits, I-APNEA was delivered intravenously as a slow bolus injection (0.25 mg/kg), beginning 15 minutes prior to the 30 minutes occlusion (n=8). In two additional groups of rabbits, the effects of the A1-selective adenosine receptor blocker, DPCPX, were tested against the effects of PC (n=6) and I-APNEA (n=8). […] At the end of 120 minutes of reperfusion, all animals were killed by an overdose of pentobarbital, and risk area and infarct size were measured.

[4] = tested on: A3 adenosine receptor (R226); details: cited from earlier work
intact rabbit = assay: Bradycardia and mean arterial pressure in the anesthetized rabbit, Example 2; details: DPCPX 0.5 mg/kg IV

## Nc1ncnc2c1ncn2[C@@H]1O[C@H](CO)[C@@H](O)[C@H]1O [ADO, Adenosine]
heart; in vivo
  Sensation of anginal pain: mediator of the sensation of anginal pain
heart; intravenous injection at doses required for ischemic preconditioning
  Hypotension: too much hypotension

## Nc1ccc(CCNc2ncnc3c2ncn3[C@@H]2O[C@H](CO)[C@@H](O)[C@H]2O)cc1 [APNEA, N^6-(2-(4-aminophenyl)ethyl) adenosine]
Isolated rabbit hearts [1]; 1 minute, before 50±9, 3 hearts
  Coronary flow after APNEA: 58 ± 6 mL/min
Isolated rabbit hearts [1]; 1 minute, before 178±7, 3 hearts
  Heart rate after APNEA: 169±3 beats/min
Isolated rabbit hearts [1]; non-ischemic hearts
  Effect on heart rate or coronary flow: no effect on heart rate or coronary flow
Isolated rabbit hearts [2]; APNEA 0.5 nM
  Effect on infarct size compared to untreated control: no effect on infarct size
Isolated rabbit hearts [2]; APNEA 5 nM
  Infarct Area: 14 ± 3 % of Risk
Isolated rabbit hearts [2]; APNEA 50 nM
  Infarct Area: 14 ± 3 % of Risk
Isolated rabbit hearts [2]; APNEA 500 nM
  Infarct Area: 8 ± 1 % of Risk
Isolated rabbit hearts [2]; APNEA 500 nM + DPCPX 200 nM
  Infarct Area: 15 ± 5 % of Risk
Isolated rabbit hearts [2]; APNEA 5, 50, and 500 nM
  Effect on infarct size: reduced infarct size
Isolated rabbit hearts [2]; APNEA .5 nM, control 24 ± 1
  Infarct Area: 22 ± 5 % of Risk

## CCCn1c(=O)c2[nH]c(C3CCCC3)nc2n(CCC)c1=O [DPCPX, 8-cyclopentyl-1,3-dipropylxanthine]
Isolated rabbit hearts [2]; DPCPX 200 nM + APNEA 500 nM
  Blockade of APNEA's infarct size reduction: not blocked
[3]; DPCPX 0.5 mg/kg IV + I-APNEA 0.25 mg/kg
  Infarct size: 28±8.0%
[3]; DPCPX 0.5 mg/kg IV + PC
  Infarct size: 7±1.8%
[4]
  Binding to R226: not to bind
Intact rabbit
  Effect on bradycardia associated with activation of the A1 adenosine receptor: abolish
Intact rabbit; I-APNEA 0.25 mg/kg or R-PIA 1 mg/kg, iv
  Effect on fall in mean arterial pressure with I-APNEA or R-PIA: attenuated
